Test results from ChEMBL document CHEMBL4138157, “Synthesis, antibacterial properties and 2D-QSAR studies of quinolone-triazole conjugates” (2018).
Converted amounts (≈) assume the structure as drawn.

Key:
[1] = system: Streptococcus pyogenes; assay: Antibacterial activity against Streptococcus pyogenes ATCC 19615 after 18 hrs by agar dilution method; assay type: functional; conditions: ATCC 19615, 18 h
[2] = system: Salmonella typhi; assay: Antibacterial activity against Salmonella typhi ATCC 19430 after 18 hrs by agar dilution method; assay type: functional, Salmonella enterica subsp. enterica serovar Typhi; conditions: Salmonella enterica, ATCC 19430, 18 h
[3] = system: Escherichia coli; assay: Antibacterial activity against Escherichia coli ATCC 25922 after 18 hrs by agar dilution method; assay type: functional; conditions: ATCC 25922, 18 h
[4] = system: Pseudomonas aeruginosa; assay: Antibacterial activity against Pseudomonas aeruginosa ATCC 27853 after 18 hrs by agar dilution method; assay type: functional; conditions: ATCC 27853, 18 h

Structure (SMILES) | MIC [1] | MIC [2] | MIC [3] | MIC [4]
C#CCN1CCN(c2cc3c(cc2F)c(=O)c(C(=O)O)cn3CC)CC1 | 1430 µM (≈ 512 µg/mL) | 1430 µM (≈ 512 µg/mL) | > 2870 µM | > 2870 µM
C#CCN1CCN(c2ncc3c(=O)c(C(=O)O)cn(CC)c3n2)CC1 | 750 µM (≈ 256 µg/mL) | > 3000 µM | 750 µM (≈ 256 µg/mL) | > 3000 µM
CCn1cc(C(=O)O)c(=O)c2cc(F)c(N3CCN(Cc4cn([C@@H](CC(C)C)C(=O)O)nn4)CC3)cc21 | 1210 µM (≈ 625 µg/mL) | 2430 µM (≈ 1250 µg/mL) |  | 1210 µM (≈ 625 µg/mL)
CCn1cc(C(=O)O)c(=O)c2cnc(N3CCN(Cc4cn(CC(=O)N[C@@H](Cc5ccccc5)C(=O)O)nn4)CC3)nc21 | 2120 µM (≈ 1250 µg/mL) | 212 µM (≈ 125 µg/mL) |  | 2120 µM (≈ 1250 µg/mL)
O=C(Cn1cc(CN2CCN(c3cc4c(cc3F)c(=O)c(C(=O)O)cn4C3CC3)CC2)nn1)N[C@@H](Cc1ccccc1)C(=O)O | 2020 µM (≈ 1250 µg/mL) | 2020 µM (≈ 1250 µg/mL) |  | 2020 µM (≈ 1250 µg/mL)
O=C(O)c1cn(C2CC2)c2cc(N3CCNCC3)c(F)cc2c1=O [CIPROFLOXACIN] | 3770 µM (≈ 1250 µg/mL) | 7.2 µM (≈ 2.39 µg/mL) |  | 14.5 µM (≈ 4.8 µg/mL)
C[C@@H](C(=O)O)n1cc(CN2CCN(c3cc4c(cc3F)c(=O)c(C(=O)O)cn4C3CC3)CC2)nn1 | 2580 µM (≈ 1250 µg/mL) | 2580 µM (≈ 1250 µg/mL) |  | 2580 µM (≈ 1250 µg/mL)
C#CCN1CCN(c2cc3c(cc2F)c(=O)c(C(=O)O)cn3C2CC2)CC1 | > 2770 µM | 1390 µM (≈ 512 µg/mL) | > 2770 µM | > 2770 µM
CCn1cc(C(=O)O)c(=O)c2cnc(N3CCN(Cc4cn(-c5ccccc5)nn4)CC3)nc21 | 556 µM (≈ 256 µg/mL) | 0.3 µM (≈ 0.138 µg/mL) | 0.3 µM (≈ 0.138 µg/mL) | 1110 µM (≈ 512 µg/mL)
CCn1cc(C(=O)O)c(=O)c2cc(F)c(N3CCN(Cc4cn(CC(=O)N[C@@H](Cc5ccccc5)C(=O)O)nn4)CC3)cc21 | 1030 µM (≈ 625 µg/mL) | 2060 µM (≈ 1250 µg/mL) |  | 2060 µM (≈ 1250 µg/mL)
CCn1cc(C(=O)O)c(=O)c2cc(F)c(N3CCN(Cc4cn(-c5ccc([N+](=O)[O-])cc5)nn4)CC3)cc21 | 15.3 µM (≈ 7.98 µg/mL) | 0.2 µM (≈ 0.104 µg/mL) | 0.2 µM (≈ 0.104 µg/mL) | > 1960 µM
CCn1cc(C(=O)O)c(=O)c2cnc(N3CCN(Cc4cn(-c5ccc([N+](=O)[O-])cc5)nn4)CC3)nc21 | 127 µM (≈ 64 µg/mL) | 0.2 µM (≈ 0.101 µg/mL) | 0.2 µM (≈ 0.101 µg/mL) | 1010 µM (≈ 512 µg/mL)
CC(C)[C@@H](C(=O)O)n1cc(CN2CCN(c3cc4c(cc3F)c(=O)c(C(=O)O)cn4C3CC3)CC2)nn1 | 2440 µM (≈ 1250 µg/mL) | 2440 µM (≈ 1250 µg/mL) |  | 2440 µM (≈ 1250 µg/mL)
CCn1cc(C(=O)O)c(=O)c2cnc(N3CCNCC3)nc21 [PIPEMIDIC ACID] | 2060 µM (≈ 625 µg/mL) | 7.9 µM (≈ 2.4 µg/mL) |  | 64.3 µM (≈ 19.5 µg/mL)
O=C(O)c1cn(C2CC2)c2cc(N3CCN(Cc4cn([C@@H](Cc5ccccc5)C(=O)O)nn4)CC3)c(F)cc2c1=O | 2230 µM (≈ 1250 µg/mL) | 2230 µM (≈ 1250 µg/mL) |  | 2230 µM (≈ 1250 µg/mL)
CCn1cc(C(=O)O)c(=O)c2cnc(N3CCN(Cc4cn([C@@H](C)C(=O)O)nn4)CC3)nc21 | 1370 µM (≈ 625 µg/mL) | 2740 µM (≈ 1250 µg/mL) |  | 1370 µM (≈ 625 µg/mL)
O=C(O)c1cn(C2CC2)c2cc(N3CCN(Cc4cn(-c5ccccc5)nn4)CC3)c(F)cc2c1=O | 16.4 µM (≈ 8.01 µg/mL) | 0.2 µM (≈ 0.0977 µg/mL) | 0.2 µM (≈ 0.0977 µg/mL) | > 2100 µM
CCn1cc(C(=O)O)c(=O)c2cc(F)c(N3CCN(Cc4cn(-c5ccc(C)cc5)nn4)CC3)cc21 | 2 µM (≈ 0.981 µg/mL) | 32.6 µM (≈ 16 µg/mL) | 0.2 µM (≈ 0.0981 µg/mL) | > 2090 µM
CCn1cc(C(=O)O)c(=O)c2cc(F)c(N3CCNCC3)cc21 [NORFLOXACIN] | 1960 µM (≈ 625 µg/mL) | 7.5 µM (≈ 2.4 µg/mL) |  | 15 µM (≈ 4.79 µg/mL)
CCn1cc(C(=O)O)c(=O)c2cc(F)c(N3CCN(Cc4cn([C@H](C(=O)O)C(C)C)nn4)CC3)cc21 | 1250 µM (≈ 625 µg/mL) | 2500 µM (≈ 1250 µg/mL) |  | 2500 µM (≈ 1250 µg/mL)
CC(C)C[C@@H](C(=O)O)n1cc(CN2CCN(c3cc4c(cc3F)c(=O)c(C(=O)O)cn4C3CC3)CC2)nn1 | 2370 µM (≈ 1250 µg/mL) | 2370 µM (≈ 1250 µg/mL) |  | 2370 µM (≈ 1250 µg/mL)
